Here are results for one molecule from patent US20240382509A1, “Cannabinoids C- and O-glycosides possessing anti-proliferative and anti-metastatic properties and process for preparation thereof” (Council of Scientific and Industrial Research, priority 2021, published 2024).

For experiment [1], the system named is MDA-MB-231 cells. The experiment is described as follows: In-situ gelatin degradation assay, MDA-MB-231. The settings on record: MDA-MB-231, 1.5 μM to 5 μM. The format is cell-based, human. How it is done: Matrix gelatin degradation assay. In-situ gelatin degradation assay is performed to detect the formation of migratory structures (invadopodia & filopodia). Briefly, glass coverslips were coated with gelatin tagged with FITC, and the coated coverslips were dipped into 70% ethanol and immersed into a 6 well plate filled with RPMI and the coverslips were kept in a CO2 incubator for 1-2 h for preconditioning. Later on, both MIAPaCa-2 and MDA-MB-231 cells were seeded onto the coverslips and kept overnight for attachment. Treatment of the compound 2a (0.5, 1.5, 3 & 5 μM) was given on the next day and continued for 36 h. Upon termination, the coverslips were washed with ice-cold PBS, and then it was fixed in 4% paraformaldehyde for 15 min and then washed with PBS. Finally, the coverslips were mounted using mounting media consist of glycerol, and the edges were sealed with nail polish. After drying, the slides were observed under a fluorescence microscope to assess a degraded area's presence. The fluorescent images were captured, and the images were further processed in Image J software (Version 1.50i) to quantify the degraded area in each field.
(§1) Now to study its anti-migratory and anti-metastatic role in another highly metastatic cancer cells of breast origin (MDA-MB 231) the IC50 value was determined by performing MTT assay (FIG. 6a).

The subject of experiment [2] is MDA-MB-231 cells. The experiment can be described thus: Matrigel invasion assay, MDA-MB-231. It is filed as cell-based, human. The note with it: MDA-MB231, 0.5 μM to 5 μM. How it is done: Matrigel invasion assay: MIAPaCa-2 and MDA-MB-231 cells (1×10^6) were seeded onto matrigel coated inserts and treated with compound 2a (0.5, 1.5, 3 & 5 μM) for 36 h in 5% CO2 incubator at 37° C. The upper chamber is filled with serum-free media, and the lower half consists of 10% FBS supplemented media, thus creating a gradient of chemoattractant that facilitates the migration of cells. Upon termination, the inserts were washed with PBS, and the non-migratory cells were removed from the upper chamber by using a cotton plug. Further, the cells were fixed with methanol and stained later with 0.2% crystal violet. After drying, the inserts were observed under an inverted microscope at 20× magnification, and images were taken.
as §1

For experiment [3], the system named is human colorectal adenocarcinoma cell line (HT-29). The experiment is described as follows: MTT cell viability assay, HT-29. It is filed as cell-based. The settings on record: Homo sapiens, HT-29, 48 h, read-out: Cytotoxicity (IC50) HT-29, MTT, 48 h; human colorectal adenocarcinoma cell line. The protocol:
Cell viability assay: The cell viability was determined by the standard MTT assay method. Briefly, Panc-1, HCT-116, A549, PC3, MIAPaca-2, HT-29, MDA-MB-231, MCF7 cells, and fR2cells were seeded in 96 well tissue culture plates (Nunc) at a density of 4×10^3 cells per well and treated with varying concentrations of the test compounds in triplicates. DMSO was taken as a vehicle, and its final concentration was maintained at 0.2% in the culture medium. Doxorubicin was employed as a positive control. After 44 h of incubation, MTT dye solution was added into the medium, and cells were incubated for another 4 h at 37° C. in 5% CO2. The amount of colored formazan derivatives formed was measured by taking optical density (OD) using a microplate reader (TECAN, Infinite M200 Pro) at 570 nm, and the percentage of cell viability was calculated. The IC50 values were calculated using GraphPad Prism software (Version 5.0).
A general note: Tetrazolium assays rely on reduction of a dye to a coloured formazan, in cell work by metabolically active cells.

The subject of another experiment is γH2AX in HCT-116 cells. The experiment is described as follows: γH2AX immunofluorescence after combinatorial treatment of 5FU and compound 2a. The format is cell-based. The note with it: HCT-116, 750 nM 5FU+3 μM 2a. The protocol:
Assessment of DNA damage by combinatorial treatment of 5FU and Compound 2a. An immunofluorescence study was performed to assess the expression of γH2AX, which tends to form a complex with damaged DNA resulting in the formation of a beads-like structure when tagged with a fluorescent labelled antibody. Briefly, HCT-116 cells were seeded in 8 well chamber slide and treated with vehicle, 750 nM 5FU+3 μM 2a for 36, 48, and 60 h and 750 nM 5FU for 60 h. Following termination of drug treatment, the cells were washed with ice-cold PBS and fixed with 4% paraformaldehyde for 10 min. Subsequently, permeabilization was done by incubating the cells with 0.1% Triton X-100. Before incubating with primary antibody (anti-γH2AX mouse monoclonal antibody), the cells were blocked with 5% BSA for 1-2 h; consequently, the cells were incubated with primary antibody (1:200) for overnight at 4° C. Subsequently, the cells were washed with ice-cold PBS for five times and further incubated with secondary anti-mouse antibody (1:500) for 30 min. The slides, after thorough washing with PBS, were mounted in DAPI containing mounting media. The images were captured in Floid imaging station at 20× optical magnification, and digital zooming was done up to […].
The effect of the compound 2a in combination with DNA damaging drug 5-Fluorouracil in colon adenocarcinoma cells was studied. […]

As for `CCCCCc1cc(O[C@@H]2OC(CO)[C@@H](O)C(O)C2O)c2c(c1)OC(C)(C)[C@@H]1CCC(C)=C[C@@H]21` (stereo partly drawn) [Compound 2a, Δ^9-tetrahydrocannabinol-1-O-β-D-glucopyranoside], the gelatin degradation entry with MDA-MB-231 cells [1] was “significant decrease of gelatin degradation”. The “migration in Matrigel coated invasion chamber” value with MDA-MB-231 cells [2] is “periodical loss of migration”. Moreover, the IC50 in experiment [3] turned out to be 3.16 µM. Also, the “expression of γH2AX (immunocytochemistry)” value in the experiment on γH2AX in HCT-116 cells was “increased expression”.

One may read the IC50 as the concentration that inhibits the measured activity by half.
